# Data published in ChEMBL document CHEMBL1201862, “PubChem BioAssay data set” (2004).
# Calls of active or inactive are those of the source.
# Experiments:
# [1] = target: Melanocortin receptor 4 (Homo sapiens, UniProt P32245); experiment: MC4R antagonist potency on cAMP, dose response, cell-based, TR-FRET, biased antagonists (AID 602298); format: functional;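 note: antagonist potency against agonist-stimulated cAMP production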
# [2] = nonselective inhibitors of cellular cAMP signaling, dose response, counter-screen for MC4R biased antagonist project, cell-based, TR-FRET cAMP detection (AID 602305); format: functional;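 note: U2OS cells stimulated with forskolin near its EC80 as the cAMP inducer; potency is for inhibition of forskolin-stimulated cAMP signaling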
# [3] = target: Hepatocyte nuclear factor 4-alpha (Homo sapiens, UniProt P41235); format: functional, cell-based;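 note: biochemical luminescence-based dose-response counterscreen measuring inhibition of HNF4 dimerization, run alongside a screen for blockers of ABHD5–perilipin-5 interaction; split luciferase complementation of HNF4 fusion proteins in cell lysate measuring dimerization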
# Chain of Hepatocyte nuclear factor 4-alpha (P41235 whole entry, the tested form may be a part): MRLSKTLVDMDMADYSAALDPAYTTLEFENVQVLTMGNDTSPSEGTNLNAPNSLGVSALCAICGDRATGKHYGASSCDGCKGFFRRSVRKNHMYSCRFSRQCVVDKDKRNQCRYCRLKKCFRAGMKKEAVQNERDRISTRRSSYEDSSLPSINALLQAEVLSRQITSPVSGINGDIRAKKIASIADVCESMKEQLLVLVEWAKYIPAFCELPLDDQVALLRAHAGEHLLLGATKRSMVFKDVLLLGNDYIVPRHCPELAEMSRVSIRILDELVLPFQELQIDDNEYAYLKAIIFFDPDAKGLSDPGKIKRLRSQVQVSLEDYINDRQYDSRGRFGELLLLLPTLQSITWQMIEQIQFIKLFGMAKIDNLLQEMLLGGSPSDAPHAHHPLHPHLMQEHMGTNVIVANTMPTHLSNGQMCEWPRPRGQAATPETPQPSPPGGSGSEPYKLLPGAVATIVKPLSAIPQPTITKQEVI
# [4] = target: T1, Corticotropin-releasing factor receptor 2/Corticotropin-releasing factor-binding protein (Homo sapiens, UniProt P24387+Q13324); experiment: activators of CRF receptor 2 with binding protein – uHTS hits, confirmation (AID 602473); format: functional; settings: read-out: EC50_Mean
# T1 sequence (Q13324 whole entry): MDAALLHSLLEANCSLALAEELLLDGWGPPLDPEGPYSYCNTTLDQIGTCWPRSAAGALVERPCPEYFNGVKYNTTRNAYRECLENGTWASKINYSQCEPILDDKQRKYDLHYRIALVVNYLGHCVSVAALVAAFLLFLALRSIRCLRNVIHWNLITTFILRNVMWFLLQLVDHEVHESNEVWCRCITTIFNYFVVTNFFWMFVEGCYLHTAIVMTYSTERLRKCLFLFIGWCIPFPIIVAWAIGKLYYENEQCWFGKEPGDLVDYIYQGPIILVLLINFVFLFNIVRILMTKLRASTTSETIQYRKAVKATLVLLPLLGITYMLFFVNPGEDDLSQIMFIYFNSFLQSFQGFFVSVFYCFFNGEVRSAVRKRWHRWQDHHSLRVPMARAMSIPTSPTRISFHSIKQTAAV
# T1 sequence (P24387 whole entry): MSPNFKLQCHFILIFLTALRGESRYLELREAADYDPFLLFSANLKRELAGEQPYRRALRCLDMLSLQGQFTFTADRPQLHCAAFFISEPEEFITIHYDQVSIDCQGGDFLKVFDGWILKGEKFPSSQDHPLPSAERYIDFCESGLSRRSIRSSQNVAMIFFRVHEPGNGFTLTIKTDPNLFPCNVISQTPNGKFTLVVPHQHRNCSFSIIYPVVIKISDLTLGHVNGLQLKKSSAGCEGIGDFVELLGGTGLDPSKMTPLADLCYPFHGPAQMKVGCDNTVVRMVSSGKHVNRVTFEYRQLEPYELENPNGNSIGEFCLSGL
# [5] = CRF-BP/CRF-R2 complex antagonists, dose response, cell-based, uHTS hits, 384-well (AID 651639); format: functional, Homo sapiens; settings: read-out: IC50_Mean
# [6] = target: T1, Corticotropin-releasing factor receptor 2/Corticotropin-releasing factor-binding protein; experiment: Dose Response confirmation of uHTS hits for small molecule antagonists of the CRF-binding protein and CRF-R2 receptor complex.; format: functional; settings: read-out: IC50_Mean
# [7] = target: 5-hydroxytryptamine receptor 2A (Mus musculus, UniProt P35363); format: functional, cell-based;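 note: CHO-K1 cells with tagged receptor and beta-arrestin; agonist potency measured as compound-induced activation of the receptor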
# Chain of 5-hydroxytryptamine receptor 2A (P35363 whole entry): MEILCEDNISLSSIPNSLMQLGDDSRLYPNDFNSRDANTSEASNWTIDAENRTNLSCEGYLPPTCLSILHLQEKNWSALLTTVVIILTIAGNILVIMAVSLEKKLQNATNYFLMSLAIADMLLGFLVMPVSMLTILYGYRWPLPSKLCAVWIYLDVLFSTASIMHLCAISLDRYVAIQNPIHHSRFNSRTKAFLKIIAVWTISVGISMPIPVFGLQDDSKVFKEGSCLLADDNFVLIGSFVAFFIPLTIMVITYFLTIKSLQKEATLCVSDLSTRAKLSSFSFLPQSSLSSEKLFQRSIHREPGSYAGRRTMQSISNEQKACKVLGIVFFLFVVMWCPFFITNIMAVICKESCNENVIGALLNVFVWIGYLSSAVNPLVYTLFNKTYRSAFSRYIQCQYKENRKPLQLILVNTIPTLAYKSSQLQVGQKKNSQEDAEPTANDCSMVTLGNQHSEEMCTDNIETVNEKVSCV
# [8] = target: T2, Mu-type opioid receptor (Homo sapiens, UniProt P35372); format: functional, cell-based
# T2 sequence (P35372 whole entry): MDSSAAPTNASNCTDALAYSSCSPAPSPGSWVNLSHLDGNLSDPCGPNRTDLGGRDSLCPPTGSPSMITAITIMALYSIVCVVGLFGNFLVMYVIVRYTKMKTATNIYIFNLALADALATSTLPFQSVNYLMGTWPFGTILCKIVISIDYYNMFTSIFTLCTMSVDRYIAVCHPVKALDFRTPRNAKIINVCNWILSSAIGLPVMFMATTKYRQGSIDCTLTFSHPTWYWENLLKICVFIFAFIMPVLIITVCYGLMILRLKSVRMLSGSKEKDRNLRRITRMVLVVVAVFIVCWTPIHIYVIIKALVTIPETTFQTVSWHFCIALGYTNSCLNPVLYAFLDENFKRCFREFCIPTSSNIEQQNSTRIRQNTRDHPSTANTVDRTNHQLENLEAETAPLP
# [9] = system: HeLa; experiment: HeLa cell cytotoxicity, dose response, cytotoxicity control for MITF activator project, CellTiter-Glo luminescence, cherry-pick samples (AID 540259); format: functional, cell-based; settings: Homo sapiens
# [10] = target: Delta-type opioid receptor (Homo sapiens, UniProt P41143); experiment: Counterscreen for agonists of heterodimerization of the mu 1 (OPRM1) and delta 1 (OPRD1) opioid receptors: Luminescence-based cell-based high throughput dose response assay to identify agonists of OPRD1 homodimerization. [Related pubchem assays (depositor defined):AID504326, AID504355, AID504692, AID504904, AID504905]; format: functional
# Chain of Delta-type opioid receptor (P41143 whole entry): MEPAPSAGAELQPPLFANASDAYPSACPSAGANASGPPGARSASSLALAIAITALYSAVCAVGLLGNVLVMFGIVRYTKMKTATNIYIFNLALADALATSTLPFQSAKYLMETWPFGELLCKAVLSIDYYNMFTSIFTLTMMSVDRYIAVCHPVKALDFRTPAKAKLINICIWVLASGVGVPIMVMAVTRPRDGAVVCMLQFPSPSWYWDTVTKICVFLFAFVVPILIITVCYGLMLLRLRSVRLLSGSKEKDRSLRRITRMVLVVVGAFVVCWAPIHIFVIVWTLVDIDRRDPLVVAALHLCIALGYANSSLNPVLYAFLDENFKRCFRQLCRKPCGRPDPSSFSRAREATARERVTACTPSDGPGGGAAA
# [11] = target: T2, Mu-type opioid receptor; experiment: Counterscreen for agonists of heterodimerization of the mu 1 (OPRM1) and delta 1 (OPRD1) opioid receptors: Luminescence-based cell-based high throughput dose response assay to identify agonists of OPRM1 homodimerization.; format: functional
# [12] = target: 5-hydroxytryptamine receptor 5A (Homo sapiens, UniProt P47898); experiment: Counterscreen for agonists of OPRM1-OPRD1 heterodimerization: luminescence-based cell-based high throughput dose response assay to identify agonists of 5-hydroxytryptamine (serotonin) 5A receptor (HTR5A). [Related pubchem assays (depositor defined):AID504326, AID504355, AID504692, AID504904, AID504905]; format: functional
# Chain of 5-hydroxytryptamine receptor 5A (P47898 whole entry): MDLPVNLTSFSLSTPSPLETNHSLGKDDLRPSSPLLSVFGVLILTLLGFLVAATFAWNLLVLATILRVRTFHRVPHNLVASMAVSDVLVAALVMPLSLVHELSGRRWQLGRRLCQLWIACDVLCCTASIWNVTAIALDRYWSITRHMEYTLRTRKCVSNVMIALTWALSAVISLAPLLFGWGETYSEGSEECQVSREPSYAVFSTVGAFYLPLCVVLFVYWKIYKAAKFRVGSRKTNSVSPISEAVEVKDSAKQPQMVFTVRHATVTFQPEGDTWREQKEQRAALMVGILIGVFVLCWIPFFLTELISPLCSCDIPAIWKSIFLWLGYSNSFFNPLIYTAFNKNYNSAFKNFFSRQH
# [13] = target: T3, DNA repair protein RAD52 homolog (Homo sapiens, UniProt P43351); format: functional, biochemical
# T3 sequence (P43351 whole entry): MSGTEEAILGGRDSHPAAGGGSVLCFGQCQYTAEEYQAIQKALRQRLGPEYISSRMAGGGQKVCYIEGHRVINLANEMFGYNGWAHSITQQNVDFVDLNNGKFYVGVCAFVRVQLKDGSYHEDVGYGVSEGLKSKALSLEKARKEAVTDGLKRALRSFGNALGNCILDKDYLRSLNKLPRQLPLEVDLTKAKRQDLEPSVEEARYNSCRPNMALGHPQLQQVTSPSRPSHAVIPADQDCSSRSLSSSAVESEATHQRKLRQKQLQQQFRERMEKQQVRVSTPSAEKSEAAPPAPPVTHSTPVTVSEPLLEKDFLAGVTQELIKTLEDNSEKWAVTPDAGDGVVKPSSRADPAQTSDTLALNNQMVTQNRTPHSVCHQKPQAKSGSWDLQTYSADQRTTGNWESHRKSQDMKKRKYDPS
# [14] = target: DNA repair and recombination protein RAD54-like (Homo sapiens, UniProt Q92698); experiment: inhibitors of human RAD54 branch migration, confirmation, biochemical, fluorescence, cherry-picked samples, dose series (AID 651657); format: functional
# Chain of DNA repair and recombination protein RAD54-like (Q92698 whole entry): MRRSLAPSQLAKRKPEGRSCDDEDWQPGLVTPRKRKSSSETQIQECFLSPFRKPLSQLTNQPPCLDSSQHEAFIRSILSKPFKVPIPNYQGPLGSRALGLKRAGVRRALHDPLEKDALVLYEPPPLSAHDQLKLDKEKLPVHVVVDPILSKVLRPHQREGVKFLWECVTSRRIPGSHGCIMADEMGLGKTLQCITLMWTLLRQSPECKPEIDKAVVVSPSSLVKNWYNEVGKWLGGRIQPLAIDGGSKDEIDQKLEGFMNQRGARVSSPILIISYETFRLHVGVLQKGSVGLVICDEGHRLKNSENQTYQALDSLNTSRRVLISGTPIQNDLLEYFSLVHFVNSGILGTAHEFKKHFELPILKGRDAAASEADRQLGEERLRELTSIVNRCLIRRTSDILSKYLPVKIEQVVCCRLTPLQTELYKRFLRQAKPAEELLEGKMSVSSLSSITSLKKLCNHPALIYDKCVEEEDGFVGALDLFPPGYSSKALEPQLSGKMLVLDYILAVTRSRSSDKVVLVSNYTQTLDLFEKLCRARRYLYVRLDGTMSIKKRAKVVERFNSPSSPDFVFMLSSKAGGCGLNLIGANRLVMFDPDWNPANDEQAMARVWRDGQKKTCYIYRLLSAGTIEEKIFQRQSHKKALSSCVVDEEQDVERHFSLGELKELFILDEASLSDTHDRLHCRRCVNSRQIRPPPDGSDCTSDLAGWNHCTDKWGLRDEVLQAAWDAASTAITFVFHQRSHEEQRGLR
# [15] = system: HeLa; experiment: HeLa cell cytotoxicity, dose response, cytotoxicity control, ATP luminescence, cherry-pick samples (AID 687004); format: functional, cell-based; settings: Homo sapiens
# [16] = HEK293 cell viability, dose response, counter-screen for EBV LMP1 inhibitor project, dry powder, set 2 (AID 624374); format: functional
# Chain of Melanocortin receptor 4 (P32245 whole entry): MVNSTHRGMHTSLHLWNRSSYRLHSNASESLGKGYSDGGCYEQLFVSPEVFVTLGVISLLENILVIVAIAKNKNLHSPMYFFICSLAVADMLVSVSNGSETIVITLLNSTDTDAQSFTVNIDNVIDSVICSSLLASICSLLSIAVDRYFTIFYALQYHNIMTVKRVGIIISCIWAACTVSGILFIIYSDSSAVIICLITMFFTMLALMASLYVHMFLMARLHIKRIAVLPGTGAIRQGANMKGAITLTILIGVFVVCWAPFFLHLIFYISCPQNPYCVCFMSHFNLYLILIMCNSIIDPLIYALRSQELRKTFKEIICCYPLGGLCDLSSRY
smiles,measurement,setting,value
CC(NC(=O)COC(=O)CNS(=O)(=O)/C=C/c1ccccc1)c1ccccc1 (stereo not drawn),IC50,[1],> 64.6 µM (inactive)
same,IC50,[2],> 64.6 µM (inactive)
CC(=O)Oc1ccc(C23c4ccccc4C2(OC(C)=O)c2cc(OC(C)=O)ccc23)cc1 (stereo not drawn),IC50,[3],5.5 µM (active)
Cc1ccc(S(=O)(=O)NC(=Nc2ccc([N+](=O)[O-])cc2[N+](=O)[O-])c2ccccc2)cc1,EC50,[4],> 53 µM (inactive)
same,IC50,[5],> 20 µM (inactive)
same,IC50,[6],9.98 µM (active)
CC(C)[C@H](NC(=O)c1ccc(C(C)(C)C)cc1)C(=O)N1CCN(Cc2ccc3c(c2)OCO3)CC1,EC50,[7],4.33 µM (active)
same,EC50,[8],92.5 µM (inactive)
CN(CC(=O)Nc1ccccc1Br)C(=O)c1cc2c(s1)CCCCC2,AC50,[9],> 350 µM (inactive)
Cc1ccc2c(Cl)c(Cc3ccccc3)c(=S)[nH]c2n1,EC50,[10],> 92.5 µM (inactive)
same,EC50,[11],> 92.5 µM (inactive)
same,EC50,[12],> 92.5 µM (inactive)
CCCc1nc(C)c2c(=O)[nH]c(-c3cc(S(=O)(=O)N4CCN(CC)CC4)ccc3OCC)nn12,IC50,[3],25.1 µM (inactive)
COc1ccc(-c2cc3nc(NCCCN(C)C)n(C)c(=O)c3s2)cc1OC,AC50,[13],4.79 µM (active)
same,AC50,[14],11.5 µM (active)
CC(C)CC#Cc1ccc2c(c1)O[C@@H](CN(C)C(=O)C1CCC1)[C@@H](C)CN([C@H](C)CO)S2(=O)=O,AC50,[15],> 52 µM (inactive)
C[C@H](NC(=O)C[C@H]1C=C[C@H](NC(=O)Cc2ccccn2)[C@H](CO)O1)c1ccccc1,AbsAC35,[16],200 µM
C[C@H](CO)N1C[C@H](C)[C@H](CN(C)Cc2ccc(Oc3ccccc3)cc2)Oc2ccc(NC(=O)CCCN(C)C)cc2C1=O,AbsAC35,[16],286.99 µM
